Source: patent US20250144094A1 (Erasca, Inc., priority 2021, published 2025)

Molecular target: Recombinant human ULK1 (1-649) (Homo sapiens (Human), UniProt O75385)
Experiment: ULK1 ADP Glo kinase activity assay (MBP substrate)
Settings: 25° C., 40 minutes, read-out: ULK1 biochemical IC50
Outline: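 GST-tagged ULK1 (1-649) from Sf9 cells phosphorylated MBP, with ATP, for 40 min at 25 °C across a 12-point series from 10 uM. ADP formed was quantified by ADP-Glo luminescence against DMSO controls. IC50 came from a four-parameter variable-slope fit of log concentration.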

Recombinant human ULK1 (1-649), sequence (O75385 1-649): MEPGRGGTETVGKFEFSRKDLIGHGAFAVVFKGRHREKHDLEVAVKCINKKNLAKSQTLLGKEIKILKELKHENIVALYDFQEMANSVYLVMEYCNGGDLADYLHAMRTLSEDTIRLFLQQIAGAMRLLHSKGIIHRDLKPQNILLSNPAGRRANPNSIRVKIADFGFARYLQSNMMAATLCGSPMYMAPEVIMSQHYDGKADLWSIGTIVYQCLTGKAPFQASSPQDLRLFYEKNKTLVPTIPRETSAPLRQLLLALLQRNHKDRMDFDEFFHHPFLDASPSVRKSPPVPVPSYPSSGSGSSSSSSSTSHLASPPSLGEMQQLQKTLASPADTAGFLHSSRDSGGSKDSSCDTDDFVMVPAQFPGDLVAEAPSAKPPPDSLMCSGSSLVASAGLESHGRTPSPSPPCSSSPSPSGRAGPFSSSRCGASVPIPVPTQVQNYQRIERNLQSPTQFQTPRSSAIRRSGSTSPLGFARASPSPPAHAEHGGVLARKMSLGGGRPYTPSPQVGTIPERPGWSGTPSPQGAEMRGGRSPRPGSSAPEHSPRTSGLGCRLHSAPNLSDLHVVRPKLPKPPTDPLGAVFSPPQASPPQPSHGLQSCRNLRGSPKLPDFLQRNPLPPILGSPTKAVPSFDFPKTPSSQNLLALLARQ

Row | IC50 | Structure (SMILES)
1 | 10 to 50 nM | CCc1cc2c(cc1Nc1ncc(C(F)(F)F)c(-c3cc(S(C)(=O)=O)cs3)n1)CN(C)C2 [Example 76, 6-ethyl-2-methyl-N-(4-(4-(methylsulfonyl)thiophen-2-yl)-5-(trifluoromethyl)pyrimidin-2-yl)isoindolin-5-amine]
2 | 100 to 500 nM | CN1CCc2cc(Nc3ncc(C(F)(F)F)c(-c4cc(S(C)(=O)=O)c(C(=O)N5CCOCC5)s4)n3)c(Cl)cc2C1 [Example 61, (5-(2-((7-chloro-2-methyl-1,2,3,4-tetrahydroisoquinolin-6-yl)amino)-5-(trifluoromethyl)pyrimidin-4-yl)-3-(methylsulfonyl)thiophen-2-yl)(morpholino)methanone]
